{"source": "ChEMBL document CHEMBL4680259", "about": "“Discovery of bazedoxifene analogues targeting glycoprotein 130” (Eur J Med Chem, 2020)", "key": {"[1]": {"target": "T1, Interleukin-6 receptor subunit beta (Homo sapiens) (UniProt P40189)", "T1 sequence (whole entry)": "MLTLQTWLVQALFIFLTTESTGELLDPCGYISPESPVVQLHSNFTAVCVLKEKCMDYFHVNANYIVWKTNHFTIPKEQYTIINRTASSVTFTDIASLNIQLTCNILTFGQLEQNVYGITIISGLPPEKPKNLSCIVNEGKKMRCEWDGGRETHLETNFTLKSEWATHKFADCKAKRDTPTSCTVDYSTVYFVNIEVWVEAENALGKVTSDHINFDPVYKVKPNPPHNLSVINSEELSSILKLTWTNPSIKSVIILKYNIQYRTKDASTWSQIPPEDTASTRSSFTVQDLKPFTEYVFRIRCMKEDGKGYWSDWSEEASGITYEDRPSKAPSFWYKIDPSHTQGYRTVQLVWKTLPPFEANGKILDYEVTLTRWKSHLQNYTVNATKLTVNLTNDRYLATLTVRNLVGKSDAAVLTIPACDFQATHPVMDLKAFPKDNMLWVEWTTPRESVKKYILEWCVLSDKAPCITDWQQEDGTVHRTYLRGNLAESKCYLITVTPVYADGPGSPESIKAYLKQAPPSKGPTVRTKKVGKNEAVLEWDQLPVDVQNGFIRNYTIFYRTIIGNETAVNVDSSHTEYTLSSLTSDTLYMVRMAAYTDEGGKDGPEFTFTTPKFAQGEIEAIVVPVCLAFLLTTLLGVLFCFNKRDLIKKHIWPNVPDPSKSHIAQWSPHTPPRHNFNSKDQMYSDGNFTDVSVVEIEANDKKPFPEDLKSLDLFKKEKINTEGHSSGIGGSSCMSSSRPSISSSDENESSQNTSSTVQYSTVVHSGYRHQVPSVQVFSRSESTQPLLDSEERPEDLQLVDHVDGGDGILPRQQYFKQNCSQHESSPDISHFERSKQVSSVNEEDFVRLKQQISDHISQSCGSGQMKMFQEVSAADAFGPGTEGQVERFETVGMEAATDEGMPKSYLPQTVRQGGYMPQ", "test": "Inhibition of GP130 in human A549 cells assessed as reduction in cyclin-D1 protein expression after 24 hrs by Western blot analysis", "format": "cell-based", "details": "dose 3-9 µM"}, "[2]": {"test": "Mean residence time in rat at 0.5 mg/kg, iv", "format": "ADME, organism-based", "details": "in vivo"}, "A549 [3]": {"system": "A549", "test": "Induction of apoptosis in human A549 cells assessed as late apoptotic cells at 9 uM incubated for 24 hrs by annexin V-FITC and propidium iodide staining based flow cytometry analysis (reference value: 1.4 %)", "format": "functional"}, "[4]": {"test": "Toxicity in nude mouse xenografted with human A549 cells assessed as effect on body weight at 10 to 20 mg/kg, ip administered daily for 21 days and measured every 2 or 3 days", "format": "organism-based", "details": "in vivo, 504 h, dose 10-20 mg/kg, time 21 day"}, "A549 [5]": {"system": "A549", "test": "Antimigratory activity against human A549 cells assessed as reduction in cell migration measured after 24 hrs by scratch wound healing assay", "format": "functional, cell-based", "details": "dose 3-6 µM"}, "[6]": {"test": "AUC (0 to infinity) in rat at 5 mg/kg, ig", "format": "ADME, organism-based", "design": "route […], time infinity, dose 5 mg/kg", "details": "in vivo, po"}, "A549 [7]": {"system": "A549", "test": "Induction of apoptosis in human A549 cells assessed as viable cells at 6 uM incubated for 24 hrs by annexin V-FITC and propidium iodide staining based flow cytometry analysis (reference value: 97.7 %)", "format": "functional", "details": "read-out: Activity"}, "Estrogen receptor": {"target": "T2, Estrogen receptor (Homo sapiens, UniProt P03372)", "T2 sequence (P03372 whole entry)": "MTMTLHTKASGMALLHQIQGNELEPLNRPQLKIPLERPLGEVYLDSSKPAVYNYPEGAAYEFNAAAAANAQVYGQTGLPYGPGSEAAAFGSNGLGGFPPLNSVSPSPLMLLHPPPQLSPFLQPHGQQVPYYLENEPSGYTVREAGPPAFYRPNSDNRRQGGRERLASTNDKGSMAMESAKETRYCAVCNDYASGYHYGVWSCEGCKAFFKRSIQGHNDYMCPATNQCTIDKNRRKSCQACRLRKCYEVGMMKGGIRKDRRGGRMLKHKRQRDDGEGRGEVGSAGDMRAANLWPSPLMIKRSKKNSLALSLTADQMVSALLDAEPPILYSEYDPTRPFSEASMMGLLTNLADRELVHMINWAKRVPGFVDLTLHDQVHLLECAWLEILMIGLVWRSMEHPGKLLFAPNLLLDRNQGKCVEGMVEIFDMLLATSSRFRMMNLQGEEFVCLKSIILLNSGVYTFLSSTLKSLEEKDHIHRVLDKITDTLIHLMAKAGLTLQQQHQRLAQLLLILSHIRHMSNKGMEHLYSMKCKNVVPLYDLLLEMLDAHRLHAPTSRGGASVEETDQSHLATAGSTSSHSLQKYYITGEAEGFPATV", "test": "Binding affinity to ERalpha (unknown origin) by SPR assay"}, "[8]": {"test": "AUC (0 to t) in rat at 0.5 mg/kg, iv", "format": "ADME, organism-based", "design": "dose 0.5 mg/kg", "details": "in vivo"}, "A549 [9]": {"system": "A549", "test": "Induction of ROS generation in human A549 cells assessed as fold increase in ROS level at 9 uM after 24 hrs by DCFH-DA staining based flow cytometric analysis relative to control", "format": "functional"}, "A549 [10]": {"system": "A549", "test": "Induction of apoptosis in human A549 cells assessed as early apoptotic cells at 3 uM incubated for 24 hrs by annexin V-FITC and propidium iodide staining based flow cytometry analysis (reference value: 0.5 %)", "format": "functional"}, "[11]": {"target": "T1, Interleukin-6 receptor subunit beta (Homo sapiens)", "test": "Inhibition of GP130 in human A549 cells assessed as decrease in STAT3 phosphorylation at Y705 residue at 3 to 9 uM incubated for 24 hrs by western blot analysis", "format": "cell-based", "details": "dose 3-9 µM"}, "A549 [12]": {"system": "A549", "test": "Induction of apoptosis in human A549 cells assessed as early apoptotic cells at 6 uM incubated for 24 hrs by annexin V-FITC and propidium iodide staining based flow cytometry analysis (reference value: 0.5 %)", "format": "functional"}, "A549 [13]": {"system": "A549", "test": "Induction of ROS generation in human A549 cells assessed as fold increase in ROS level at 3 uM after 24 hrs by DCFH-DA staining based flow cytometric analysis relative to control", "format": "functional"}, "[14]": {"target": "T1, Interleukin-6 receptor subunit beta (Homo sapiens)", "test": "Binding affinity to D2/D3 domain of FLAG-tagged GP130 (unknown origin) expressed in HEK293 cells assessed as inhibition of rhIL6/Myc-tagged IL6R interaction with GP130 at 10 uM preincubated for 4 hrs followed by stimulation with recombinant human IL6 for 30 mins by co-immunoprecipitation method", "format": "cell-based", "details": "time 270.0 min"}, "[15]": {"test": "Acute toxicity in ICR mouse assessed as mortality at 120 mg/kg measured after 2 weeks", "format": "organism-based", "details": "in vivo, 336 h"}, "[16]": {"target": "T1, Interleukin-6 receptor subunit beta (Homo sapiens)", "test": "Binding affinity to immobilized GP130 (unknown origin) assessed as response unit at 20 uM by SPR analysis"}, "A549 [17]": {"system": "A549", "test": "Induction of apoptosis in human A549 cells assessed as necrotic cells at 3 uM incubated for 24 hrs by annexin V-FITC and propidium iodide staining based flow cytometry analysis (reference value: 0.4 %)", "format": "functional"}, "A549 [18]": {"system": "A549", "test": "Induction of apoptosis in human A549 cells assessed as late apoptotic cells at 6 uM incubated for 24 hrs by annexin V-FITC and propidium iodide staining based flow cytometry analysis (reference value: 1.4 %)", "format": "functional"}, "A549 [19]": {"system": "A549", "test": "Induction of apoptosis in human A549 cells assessed as increase in cleaved PARP level at 3 to 9 uM incubated for 24 hrs by Western blot analysis", "format": "functional, cell-based", "details": "dose 3-9 µM"}}, "note": "Active and inactive are the calls of the source. The rule behind the calls is not given here."}
{"smiles": "NC(=O)N1N=C(c2ccc(C(F)(F)F)cc2)CC1c1cn(Cc2ccc(OCCN3CCCCCC3)cc2)c2ccc(Br)cc12", "note": "(stereo not given)", "values": [{"measurement": "inhibition", "setting": "[1]", "value": "Dose-dependent effect"}, {"measurement": "MRT", "setting": "[2]", "value": 13.7, "unit": "h"}, {"measurement": "Activity", "setting": "A549 [3]", "value": 33, "unit": "%"}, {"measurement": "Activity", "setting": "[4]", "value": "Non-Toxic"}, {"measurement": "Activity", "setting": "A549 [5]", "value": "Dose-dependent effect"}, {"measurement": "AUC", "setting": "[6]", "value": 329.9, "unit": "ng·h/mL"}, {"measurement": "viability at 6 µM", "setting": "A549 [7]", "value": 91.5, "unit": "%"}, {"measurement": "Kd", "setting": "Estrogen receptor", "value": 47.2, "unit": "µM"}, {"measurement": "AUC(0-t)", "setting": "[8]", "value": 468, "unit": "ng·h/mL"}, {"measurement": "fold change (FC)", "setting": "A549 [9]", "value": 6.28}, {"measurement": "Activity", "setting": "A549 [10]", "value": 0.9, "unit": "%"}, {"measurement": "Activity", "setting": "[11]", "value": "Active"}, {"measurement": "Activity", "setting": "A549 [12]", "value": 1.7, "unit": "%"}, {"measurement": "fold change (FC)", "setting": "A549 [13]", "value": 1.93}, {"measurement": "Activity", "setting": "[14]", "value": "inactive"}, {"measurement": "Activity", "setting": "[15]", "value": "Non-Toxic"}, {"measurement": "Activity", "setting": "[16]", "value": 28.3, "unit": "RU"}, {"measurement": "Activity", "setting": "A549 [17]", "value": 0.4, "unit": "%"}, {"measurement": "Activity", "setting": "A549 [18]", "value": 4.9, "unit": "%"}, {"measurement": "Activity", "setting": "A549 [19]", "value": "Active"}]}
